We go through 19 molecules from ChEMBL document CHEMBL4138309, “Discovery of β-Adrenergic Receptors Blocker-Carbonic Anhydrase Inhibitor Hybrids for Multitargeted Antiglaucoma Therapy” (J Med Chem, 2018).

The source made the active and inactive calls. The calls are words filed in the database; no cut-off is given here.

In one assay the target is Carbonic anhydrase 9 (Homo sapiens, UniProt Q16790).
The target of assay [1] is Beta-1 adrenergic receptor (Homo sapiens, UniProt P08588). As to the kind of experiment: biochemical.
Assay [2] deals with Beta-2 adrenergic receptor (Homo sapiens, UniProt P07550). Nature of the assay: Displacement of [3H]-CGP12177 from human beta2 ADR expressed in HEK293T cell membrane after 90 mins by scintillation counting. (In a radioligand displacement assay an active substance lowers the binding of a labelled ligand.)
Assay [3] relates to Oryctolagus cuniculus. As to the kind of experiment: Anti-glaucoma activity in hypertonic saline-induced hypertensive New Zealand albino rabbit model assessed as decrease in intraocular pressure at 1% instilled into eye vitreous measured at 60 mins post administration by pneumatonometric analysis relative to DRZ + timolol (1% + 0.25%). The class given is functional, organism-based.

The test system of assay [4] is Oryctolagus cuniculus. As to the kind of experiment: Anti-glaucoma activity in hypertonic saline-induced hypertensive New Zealand albino rabbit model assessed as decrease in intraocular pressure at 1% instilled into eye vitreous measured at 4 hrs post administration by pneumatonometric analysis. Format: functional.
Assay [5] concerns Oryctolagus cuniculus. Nature of the assay: Anti-glaucoma activity in hypertonic saline-induced hypertensive New Zealand albino rabbit model assessed as decrease in intraocular pressure at 0.25% instilled into eye vitreous measured at 2 hrs post administration by pneumatonometric analysis. Format: functional.
Assay [6] relates to Oryctolagus cuniculus. As to the kind of experiment: Anti-glaucoma activity in hypertonic saline-induced hypertensive New Zealand albino rabbit model assessed as decrease in intraocular pressure at 0.25% instilled into eye vitreous measured at 60 mins post administration by pneumatonometric analysis. The class given is functional.
Assay [7] deals with Oryctolagus cuniculus. As to the kind of experiment: Anti-glaucoma activity in hypertonic saline-induced hypertensive New Zealand albino rabbit model assessed as decrease in intraocular pressure at 0.25% instilled into eye vitreous along with 1% DRZ measured at 4 hrs post administration by pneumatonometric analysis. Format: functional, organism-based.
Assay [8] has as its system Oryctolagus cuniculus. Nature of the assay: Anti-glaucoma activity in hypertonic saline-induced hypertensive New Zealand albino rabbit model assessed as decrease in intraocular pressure at 0.25% instilled into eye vitreous along with 1% DRZ measured at 2 hrs post administration by pneumatonometric analysis. Format: functional.
For assay [9], the system named is Oryctolagus cuniculus. As to the kind of experiment: Anti-glaucoma activity in hypertonic saline-induced hypertensive New Zealand albino rabbit model assessed as decrease in intraocular pressure at 0.25% instilled into eye vitreous measured at 4 hrs post administration by pneumatonometric analysis. The class given is functional, organism-based.

Chain of Beta-1 adrenergic receptor (P08588 whole entry): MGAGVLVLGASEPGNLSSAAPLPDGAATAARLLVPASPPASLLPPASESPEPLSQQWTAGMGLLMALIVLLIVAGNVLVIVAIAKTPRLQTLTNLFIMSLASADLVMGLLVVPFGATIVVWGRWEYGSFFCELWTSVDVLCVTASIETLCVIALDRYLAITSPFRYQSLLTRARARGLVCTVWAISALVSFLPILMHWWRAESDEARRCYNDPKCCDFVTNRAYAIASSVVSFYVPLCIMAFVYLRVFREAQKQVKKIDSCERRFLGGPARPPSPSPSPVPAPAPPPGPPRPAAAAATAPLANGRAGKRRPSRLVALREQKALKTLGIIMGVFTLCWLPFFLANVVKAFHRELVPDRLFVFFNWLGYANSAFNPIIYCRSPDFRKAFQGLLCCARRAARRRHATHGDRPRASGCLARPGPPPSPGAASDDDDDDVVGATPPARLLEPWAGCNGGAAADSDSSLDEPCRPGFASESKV
Chain of Beta-2 adrenergic receptor (P07550 whole entry): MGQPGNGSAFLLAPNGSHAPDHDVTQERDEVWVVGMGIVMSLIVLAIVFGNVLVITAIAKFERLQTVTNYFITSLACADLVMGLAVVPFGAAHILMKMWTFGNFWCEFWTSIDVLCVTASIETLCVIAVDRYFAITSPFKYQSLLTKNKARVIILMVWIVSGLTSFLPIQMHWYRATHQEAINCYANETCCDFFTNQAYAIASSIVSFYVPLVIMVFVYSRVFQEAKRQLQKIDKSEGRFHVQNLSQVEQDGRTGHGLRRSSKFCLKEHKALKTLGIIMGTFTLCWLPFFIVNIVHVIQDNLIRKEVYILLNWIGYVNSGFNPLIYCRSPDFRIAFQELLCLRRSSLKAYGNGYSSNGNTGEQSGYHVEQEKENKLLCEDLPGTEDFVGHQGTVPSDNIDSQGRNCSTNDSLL

Turning to `CNCC(O)COc1ccc(C(=O)NCCc2ccc(S(N)(=O)=O)cc2)cc1` (stereo unspecified), the Ki was 0.0017 µM on Carbonic anhydrase 9, more than 100 µM in [1] and more than 100 µM in [2].

On to `CNCC(O)COc1ccc(S(=O)(=O)NCCc2ccccc2)cc1` (stereo unspecified), for which the values for the inhibition constant (Ki) (on Carbonic anhydrase 9; in assay [1]; in [2]) were 0.0592 µM, 26.9 µM and 39.8 µM, respectively. Also, the result in the assay on Oryctolagus cuniculus [3] was Active.

As to `CC(C)N(CC(O)COc1ccc(C(=O)NCCc2ccc(S(N)(=O)=O)cc2)cc1)C(C)C` (stereo unspecified), the Ki on Carbonic anhydrase 9 is 0.006 µM; in [1], more than 100 µM; in assay [2], more than 100 µM.

Consider `CNCC(O)COc1ccc(S(=O)(=O)NC(C)C)cc1.Cl` (stereo unspecified), for which the inhibition constant Ki at Carbonic anhydrase 9 is 0.0476 µM; in assay [1], 10.5 µM; in assay [2], 31.6 µM. Further, in the assay on Oryctolagus cuniculus [4], the Activity is reported as 3.25 - 3.67 mmHg. Besides, the outcome with Oryctolagus cuniculus [3] was Active.

In the case of `CNCC(O)COc1ccc(S(N)(=O)=O)cc1` (stereo unspecified), the Ki on Carbonic anhydrase 9 is 0.0234 µM; in [1] it was more than 100 µM; in assay [2], more than 100 µM.

For the molecule `CNCC(O)COc1ccc(S(=O)(=O)NCc2ccccc2)cc1` (stereo unspecified), the Ki was 0.0931 µM at Carbonic anhydrase 9, 79.4 µM in assay [1] and more than 100 µM in assay [2].

Regarding `CCNCC(O)COc1ccc(C(=O)NCCc2ccc(S(N)(=O)=O)cc2)cc1` (stereo unspecified), the inhibition constant Ki at Carbonic anhydrase 9 was 0.0221 µM; in assay [1], more than 100 µM; in assay [2], more than 100 µM.

With `NS(=O)(=O)c1ccc(CCNC(=O)c2ccc(OCC(O)CNCCO)cc2)cc1` (stereo unspecified), the values for the inhibition constant Ki (on Carbonic anhydrase 9; in assay [1]; in assay [2]) were 0.0058 µM, more than 100 µM and more than 100 µM, respectively.

Regarding `CNCC(O)COc1ccc(S(=O)(=O)N2CCN(C)CC2)cc1` (stereo unspecified), the inhibitory constant (Ki) at Carbonic anhydrase 9 was 0.127 µM; in assay [1] it was more than 100 µM; in assay [2] it was more than 100 µM.

For the molecule `CCCNCC(O)COc1ccc(C(=O)NCCc2ccc(S(N)(=O)=O)cc2)cc1` (stereo unspecified), the Ki is 0.0074 µM at Carbonic anhydrase 9, more than 100 µM in [1] and more than 100 µM in [2].

Regarding `Cl.NS(=O)(=O)c1ccc(CCNC(=O)c2ccc(OCC(O)CN3CCOCC3)cc2)cc1` (stereo unspecified), the results for the inhibition constant Ki (on Carbonic anhydrase 9; in assay [1]; in assay [2]) were 0.007 µM, more than 100 µM and more than 100 µM, respectively. Further, the Activity in the assay with Oryctolagus cuniculus [4] was 3.25 - 3.67 mmHg. In addition, the result in the assay with Oryctolagus cuniculus [3] was Active.

On to `NS(=O)(=O)c1ccc(CCNC(=O)c2ccc(OCC(O)CNCc3ccccc3)cc2)cc1` (stereo unspecified), for which the inhibition constant Ki on Carbonic anhydrase 9 is 0.0747 µM; in assay [1], more than 100 µM; in assay [2], more than 100 µM.

For the molecule `CC(C)(C)NCC(O)COc1ccc(C(=O)NCCc2ccc(S(N)(=O)=O)cc2)cc1` (stereo unspecified), the inhibition constant (Ki) is 0.0831 µM at Carbonic anhydrase 9, more than 100 µM in assay [1] and more than 100 µM in assay [2].

For the molecule `CCC(C)NCC(O)COc1ccc(C(=O)NCCc2ccc(S(N)(=O)=O)cc2)cc1` (stereo unspecified), the Ki at Carbonic anhydrase 9 was 0.0536 µM; in assay [1], more than 100 µM; in assay [2], more than 100 µM.

In the case of `CC(C)NCC(O)COc1ccc(C(=O)NCCc2ccc(S(N)(=O)=O)cc2)cc1` (stereo unspecified), the inhibition constant Ki at Carbonic anhydrase 9 was 0.0618 µM; in assay [1], more than 100 µM; in [2], more than 100 µM.

Turning to `CNCC(O)COc1ccc(S(=O)(=O)NC(C)C(C)C)cc1` (stereo unspecified), the Ki at Carbonic anhydrase 9 is 0.108 µM; in assay [1], 15.5 µM; in assay [2], 30.2 µM.

For `CNCC(O)COc1ccc(S(=O)(=O)NC(C)(C)C)cc1.Cl` (stereo unspecified), the Ki is 0.0954 µM on Carbonic anhydrase 9, 13.5 µM in assay [1] and 5.01 µM in [2]. The Activity with Oryctolagus cuniculus [4] is reported as 3.25 - 3.67 mmHg. Moreover, the outcome with Oryctolagus cuniculus [3] was Active.

Turning to `CNCC(O)COc1ccc(S(=O)(=O)NCCOc2ccccc2)cc1` (stereo unspecified), the results for the inhibition constant Ki (at Carbonic anhydrase 9; in [1]; in assay [2]) were 0.0846 µM, 6.61 µM and 28.2 µM, respectively.

In the case of `CC(C)(C)NC[C@H](O)COc1nsnc1N1CCOCC1` [TIMOLOL], the Activity in the assay with Oryctolagus cuniculus [5] stood at 3.54 mmHg; in the assay with Oryctolagus cuniculus [6], 5.73 mmHg; in the assay with Oryctolagus cuniculus [8], 5 mmHg. Besides, the result in the assay on Oryctolagus cuniculus [7] and in the assay on Oryctolagus cuniculus [9] was inactive.

As a reminder, the Ki is the equilibrium dissociation constant of an inhibitor or competing ligand from its target.
